Data taken from patent US12600742B2, “Markers, conjugates, compositions and methods for hypoxia imaging, mapping, and therapy” (WWIKY BIOSCIENCES INC., priority 2017, dated 2026).

How the values were obtained:
FaDu cells [1] = test: Hypoxia-selective sub-cellular localization of A-TPZ, click chemistry; assay type: cell-based, human
Experimental: FaDu cells (˜0.5 million) were seeded on coverslips in 30 mm dishes and were incubated overnight at 37° C. with 5% CO2 to get attached to the surface. Cells were then treated with increasing concentrations (1-30 μM) of drug (reconstituted in DMSO at concentration of 0.5 M) and were incubated under normoxic and hypoxic (<0.1% O2) conditions for 24 hours. Post-treatment, cells were fixed with 2% paraformaldehyde for 20 minutes followed by blocking and permeabilization in 1% BSA and 0.1% Triton-X-100 for 20 minutes. Click reaction was performed in the presence of Alexa 594 alkyne using the Click-iT Cell Reaction Buffer Kit (Thermo Fisher Scientific, no: C10269), according to manufacturer's protocol. Nuclei were counterstained with Hoechst, and images were obtained using confocal microscopy.
FaDu cells were seeded on coverslips and were incubated overnight to adhere. The cells were then treated with increasing doses of A-TPZ for 24 hours under normoxic and hypoxic (<0.1% O2) conditions. Cells were fixed in 2% paraformaldehyde and Click chemistry was performed at room temperature for 30 minutes using Alexa 594 alkyne. Nuclei were counterstained with Hoechst, and images were obtained using confocal microscopy.

FaDu cells [2] = test: Crystal violet staining (CVS) assay; assay type: cell-based, human
Experimental: FaDu cells (3000 cells/well) were seeded on 96-well microtitre plates and were incubated overnight at 37° C. with 5% CO2 to get attached to the surface. Next day, the cells were treated with increasing doses of drug (1-100 μM) and the plates were incubated under normoxic (20% O2) and hypoxic (0.1% O2) conditions for 72 hours. Culture medium (DMEM and low glucose DMEM) without cells was set for background, according to the experimental set up. After the required incubation period, the media was aspirated, and the plates were allowed to dry for a few minutes followed by addition of crystal violet solution for 20 minutes in order to stain the cells. Subsequently, the dye was discarded, plates were washed with water and let to dry overnight. Methanol (150 μL) was added to the wells and incubated for 20 minutes, so as to dissolve the crystals. Absorbance of the samples was measured spectrophotometrically using an ELISA plate reader at a wavelength of 520 nm. The absorbance of background wavelength (media only) was subtracted from the other absorbance results.
FIG. 10 depicts hypoxic selective cytotoxicity of A-TPZ. […] In CVS assay (i), FaDu cells (3000 cells/well) were seeded on 96 well plates and were incubated overnight to adhere. The cells were then treated with increasing doses of A-TPZ and the plates were exposed to both normoxic (20% O2) and hypoxic (0.1% O2) conditions for 72 hours. Culture medium (DMEM) without cells was set for background. Media was aspirated post-treatment followed by addition of crystal violet solution to stain the cells. Crystals were dissolved using methanol and absorbance of the samples was measured spectrophotometrically. Error bars represent the standard error of the mean. In CFA, (ii), FaDu cells (optimum density-ranging from 300 to 3000 cells) were seeded on 60 mm plates and were incubated overnight to adhere. Next day, the cells were treated with increasing A-TPZ doses and the plates were exposed to both normoxic (20% O2) and hypoxic (0.5% O2) conditions for 24 hours. […] Colonies were stained with crystal violet solution and counted. […]

[3] = system: human and murine cancer cell lines; settings: literature; cited from earlier work
FaDu tumors = test: In vivo evaluation of radiosensitization therapy by IAZA using click mapping; design: species or system Nu/Nu mice
Experimental: Tissue sections were air dried for 25 minutes, fixed for 5 minutes in −20° C. acetone; air dried 25 minutes and blocked in PBS with 1% BSA for 20 minutes. Sections were incubated with primary antibodies for small vessel endothelium [1:100 rabbit anti-CD34 (abcam)] or hypoxia [1:100 rabbit anti-pimonidazole Hypoxyprobe)] for 2 hours at room temperature, followed by 3 five minute washes in 1×PBS. The secondary antibody (Alexafluor 647 goat anti-rabbit 1:1000 Molecular Probes with 1×DAPI to stain DNA) was incubated for 30 minutes at […] room temperature in the dark, followed by 3 five minute washes with 1×PBS. The Click-IT reaction cocktail was incubated with the sections for 30 minutes. Sections were washed 5 times with 1×PBS for 5 minutes and mounted using Mowiol 4-88 (Calbiochem) mounting media. Slides were stored at 4° C. until imaged. Images were obtained by tile scan with a Plan-Apochromat 10X/0.45 numerical aperture lens on a Zeiss 710 confocal microscope using Zen 2011 software. […]
Male Nu/Nu mice (Charles River Laboratories) aged 6 weeks were used and cared for according to the CCAC guidelines. […] The tumors were measured daily until the volume reached 0.4 cm3. […] Temperature and respiration were monitored and recorded every five minutes throughout the scans (Small animal Monitoring and Gating System, SA Instruments Inc.). […] Animals were monitored and tumors measured for up to 16 days. […]

FaDu cells [4] = test: Comparison of hypoxia selective uptake of ACN and Pimonidazole in vitro; assay type: cell-based, human
Experimental: FaDu cells were grown on coverslips (as described above) and treated simultaneously with 100 μM ACN and 100 μM Pimonidazole. The cells were subsequently exposed to normoxic (20% Oxygen), hypoxic (1% Oxygen) or anoxic (0% Oxygen) conditions for 6 hours, and fixed in 2% PFA. Standard Pimonidazole IHC was performed as described elsewhere using an Alexafluor 647 labelled secondary antibody. Click chemistry was performed as previously described using an Alexafluor 555 conjugated alkyne followed by nuclear staining with Hoechst. Mounted coverslips on glass slides were imaged as described earlier.

FaDu xenograft tumors = test: Assessment of ACN as a hypoxia tracer in tumor-bearing mice; assay type: in vivo, BALB/c nude mice; settings: 80 mg/Kg intraperitoneally, 2 hours post-injection
Experimental: Female BALB/c nude mice (Charles River Laboratories) aged 6 weeks were used and cared for according to the CCAC guidelines. We used a biflanked sub-cutaneous tumor model where the tumor in the left flank was untreated (control) and the tumor in the right flank served as the ‘treatment’ group. We subcutaneously injected 6×10^6 FaDu cells in 0.1 ml of sterile 0.9% NaCl into the upper right flank to form palpable tumors. The tumors were measured daily until the volume reached 10 mm3. The mice were divided into 4 groups and injected intraperitoneally in 0.15 ml 0.9% saline with: 1-80 mg/Kg ACN, 2-80 mg/Kg pimonidazole (Hypoxyprobe), 3-80 mg/Kg ACN:pimonidazole in a 1:1 ratio and 4-0.9% saline control. Mice were sacrificed 2 hours post-injection, tumors removed and frozen in OCT. Seven micron serial sections were taken of each tumor, dried and stored at −80° C.
Tissue sections were air dried for 25 minutes, fixed for 5 minutes in −20° C. acetone; air dried 25 minutes and blocked in PBS with 1% BSA for 20 minutes. Sections were incubated with primary antibodies for small vessel endothelium [1:100 rabbit anti-CD34 (abcam)] or hypoxia [1:100 rabbit anti-pimonidazole Hypoxyprobe)] for 2 hours at room temperature, followed by 3 five minute washes in 1×PBS. […]

For `[N-]=[N+]=NCCOCCNc1n[n+]([O-])c2ccccc2[n+]1[O-]` [A-TPZ, 3-(2-(2-Azidoethoxy)ethyl)amino-1,2,4-benzotriazine 1,4-dioxide], the “dose dependence of signal intensity” value (FaDu cells [1]; 1-30 μM, hypoxia) was “dose-dependent”, the “click fluorescence localization in hypoxic cells” value (FaDu cells [1]; hypoxia (<0.1 O2), 24 hours, 1-30 μM) was “selective sub-cellular localization” and the “click fluorescence in normoxic drug treated cells” value (FaDu cells [1]; normoxic, 24 hours) was “No fluorescence”. The “cytotoxicity under hypoxia (CVS)” value (FaDu cells [2]; 0.1% O2, 72 hours, 1-100 μM) was “selective cytotoxicity in low oxygen levels”, the “toxicity in the normoxic group (CVS)” value (FaDu cells [2]; 20% O2, 72 hours) was “minimal toxicity” and the “toxicity compared to parent compound TPZ” value (FaDu cells [2]; data not shown) was “slightly less toxic”.
For `O=[N+]([O-])c1nccn1[C@@H]1O[C@H](C[125I])[C@@H](O)[C@@H]1O` [IAZA], the “toxicity to cancer cell lines (reported)” value [3] is given as “low toxicity”, the “uptake by cells (reported)” value [3] is given as “selectively taken up by hypoxic cells” and the “effect on tumor and hypoxia, IAZA and radiation co-treated” value (FaDu tumors; 400 mg/Kg IAZA + single dose of 10 Gy radiation) is given as “both tumor shrinkage and reduced hypoxia”. For the same compound, the “effect on tumor hypoxia, IAZA alone” value (FaDu tumors; 400 mg/Kg IAZA intraperitoneally, no radiation, ACN click mapping) was “had no effect on hypoxia”.
In the case of `O=[N+]([O-])c1nccn1CC(O)CN1CCCCC1` (stereo not shown) [Pimonidazole, reference compound], the “staining detected by oxygen condition” value (FaDu cells [4]; 100 μM of each compound, 6 h) is reported as “detected in oxygen deprived cells”, the “sub-cellular distribution of signal” value (FaDu cells [4]; hypoxic <0.1% O2 cells, 100 μM) is reported as “mostly concentrated in the cytoplasm” and the “localization in tumor sections” value (FaDu xenograft tumors) is reported as “co-localize to hypoxic areas bordering necrotic regions”.
